In patent US20090012104A1, “Inhibitors of 5'-Methylthioadenosine Phosphorylase and 5'-Methylthioadenosine/S-Adenosylhomocysteine Nucleosidase” (priority 2004, published 2009):

Target: T1, E. coli MTA/AdoHcy nucleosidase (MTAN) (Escherichia coli, UniProt P0AF12)
T1 construct: hexahistidine; made in house; host or cells: bacterial expression vector
Experiment: MTAN direct UV spectrophotometric enzyme assay (cleavage of MTA, absorbance at 275 nm)
Format: biochemical
Settings: initial rates fitted to competitive inhibition; 100-250 μM MTA, 50 mM sodium phosphate pH 7, 0-1 μM inhibitor, 25° C; read-out: Ki (inhibitor constant for the initial rate reactions)
Procedure: The gene for E. coli MTA/AdoHcy nucleosidase (MTAN) was amplified and cloned into a bacterial hexahistidine plasmid expression vector. Induced recombinant enzyme was purified by Nickel-chelate chromatography, and dialyzed into 100 mM sodium phosphate buffer, pH 7. Enzyme purity was assessed by SDS-PAGE and concentration assigned using the experimentally determined extinction coefficient (ε280=10480 M^−1cm^−1).
MTAN assays were performed in 1 mL quartz cuvettes using a Perkin Elmer Lambda 35 UV/V is spectrometer outfitted with KinLab and UV WinLab software. This direct UV spectrophotometric assay follows the decrease in absorbance at 275 nm that accompanies the cleavage of MTA to MTR and Ade. (2-(4-Amino-5H-pyrrolo[3,2-d]pyrimidin-7-yl)-5-methyl-sulfanylmethyl-pyrrolidine-3,4-diol) and (2-Amino-4-[5-(4-amino-5H-pyrrolo[3,2-d]pyrimidin-7-yl)-3,4 dihydroxy-pyrrolidin-2-ylmethylsulfanyl]-butyric acid) inhibitor concentrations were assigned using UV absorbance and the extinction coefficient of 9-deazaadenine. […] Reactions were initiated by the addition of […] MTAN enzyme to the 1 mL assay mixture, and the change in UV absorbance followed for 20-25 minutes. […] Inhibitor constants for the initial rate reactions (Ki's) were calculated by fitting the results to the equation for competitive inhibition.

T1 sequence (P0AF12 whole entry): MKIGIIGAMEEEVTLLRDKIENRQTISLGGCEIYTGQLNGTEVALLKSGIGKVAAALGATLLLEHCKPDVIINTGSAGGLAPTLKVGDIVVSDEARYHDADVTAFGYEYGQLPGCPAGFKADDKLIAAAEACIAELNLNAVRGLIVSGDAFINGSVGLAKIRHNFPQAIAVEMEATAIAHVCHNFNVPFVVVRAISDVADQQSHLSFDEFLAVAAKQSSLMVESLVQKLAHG

Nc1ncnc2c(C3NC(CSCCC(N)C(=O)O)C(O)C3O)c[nH]c12 (stereo not shown) [2-Amino-4-[5-(4-amino-5H-pyrrolo[3,2-d]pyrimidin-7-yl)-3,4-dihydroxy-pyrrolidin-2-ylmethylsulfanyl]-butyric acid] was tested, and the Ki was less than 0.01 µM.
